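Dose response: 5 concentrations. Exposure: 48 h. Format: 96-well plates. Endpoint: linear interpolation; highest concentration if not reached. GI50: concentration for 50% inhibition of growth.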 Activity calls are given as the source filed them. Rule as the data show it: active = GI50 up to about 1.1 µM and inactive = higher.
Assays:
Assay in all cases: NCI-60 cell line screen, 48 h
DLD-1 = test system: DLD-1
DMS-114 = test system: DMS-114
DMS-273 = test system: DMS-273
HOP-18 = test system: HOP-18
KM-20L2 = test system: KM-20L2
LXFL 529 = test system: LXFL 529
SNB-78 = test system: SNB-78
RXF 631 = test system: RXF 631
XF498 = test system: XF498

SMILES: NS(=O)(=O)c1ccc(NC2=CC(=O)C(=O)c3ccccc32)cc1
- GI50 (DLD-1): > 100 µM (inactive)
- GI50 (DMS-114): 43.2 µM (inactive)
- GI50 (DMS-273): > 100 µM (inactive)
- GI50 (HOP-18): > 100 µM (inactive)
- GI50 (KM-20L2): > 100 µM (inactive)
- GI50 (LXFL 529): > 100 µM (inactive)
- GI50 (SNB-78): > 100 µM (inactive)

SMILES: O=[N+]([O-])c1ccc(/C=N/C23CC4CC(CC(C4)C2)C3)cc1
- GI50 (DLD-1): > 100 µM (inactive)
- GI50 (DMS-114): 91.2 µM (inactive)
- GI50 (DMS-273): > 100 µM (inactive)
- GI50 (HOP-18): > 100 µM (inactive)
- GI50 (KM-20L2): > 100 µM (inactive)
- GI50 (LXFL 529): > 100 µM (inactive)
- GI50 (RXF 631): > 100 µM (inactive)
- GI50 (SNB-78): > 100 µM (inactive)
- GI50 (XF498): > 100 µM (inactive)

SMILES: CN(C)/C=C/C(=O)c1cccc(C(=O)/C=C/N(C)C)n1
- GI50 (DLD-1): > 100 µM (inactive)
- GI50 (DMS-273): > 100 µM (inactive)
- GI50 (HOP-18): > 100 µM (inactive)
- GI50 (KM-20L2): > 100 µM (inactive)
- GI50 (LXFL 529): > 100 µM (inactive)
- GI50 (SNB-78): > 100 µM (inactive)
- GI50 (XF498): > 100 µM (inactive)

SMILES: CC(C)=CC(=O)OC1C2C(C)=CC(=O)C(O)C2(C)C2C3(O)OCC24C(CC(=O)OC14)C(C)C3O (stereo not drawn)
- GI50 (DLD-1): 0.0211 µM (active)
- GI50 (DMS-273): 0.00348 µM (active)
- GI50 (KM-20L2): 0.0316 µM (active)
- GI50 (SNB-78): 0.0311 µM (active)
- GI50 (XF498): 0.0246 µM (active)

SMILES: O=C1c2c(c3c4ccccc4n(CC4CO4)c3c3[nH]c4ccccc4c23)C(=O)N1Cc1ccccc1 (stereo not drawn)
- GI50 (DLD-1): > 10 µM (inactive)
- GI50 (DMS-114): > 100 µM (inactive)
- GI50 (DMS-273): > 100 µM (inactive)
- GI50 (LXFL 529): > 100 µM (inactive)
- GI50 (RXF 631): > 100 µM (inactive)
- GI50 (SNB-78): > 100 µM (inactive)
- GI50 (XF498): 3.7 µM (inactive)

SMILES: N#CCN1C(=O)c2cc([N+](=O)[O-])cc3cc([N+](=O)[O-])cc(c23)C1=O
- GI50 (DLD-1): 7.05 µM (inactive)
- GI50 (DMS-114): 15.2 µM (inactive)
- GI50 (DMS-273): 23.9 µM (inactive)
- GI50 (HOP-18): 64.3 µM (inactive)
- GI50 (KM-20L2): 12.9 µM (inactive)
- GI50 (LXFL 529): 9.23 µM (inactive)
- GI50 (RXF 631): 20 µM (inactive)
- GI50 (SNB-78): 16.7 µM (inactive)
- GI50 (XF498): 12.2 µM (inactive)

SMILES: CN1C(=O)N(c2nc3ccccc3[nH]2)C(C)(C)C1=O
- GI50 (DLD-1): > 100 µM (inactive)
- GI50 (DMS-114): > 100 µM (inactive)
- GI50 (DMS-273): > 100 µM (inactive)
- GI50 (HOP-18): > 100 µM (inactive)
- GI50 (KM-20L2): > 100 µM (inactive)
- GI50 (LXFL 529): > 100 µM (inactive)
- GI50 (SNB-78): > 100 µM (inactive)
- GI50 (XF498): > 100 µM (inactive)

SMILES: CCOC(=O)/C(ON)=C(/CC/C(C(=O)OC)=C(\ON)C(=O)OCC)C(=O)OC
- GI50 (DLD-1): > 100 µM (inactive)
- GI50 (DMS-114): > 100 µM (inactive)
- GI50 (DMS-273): > 100 µM (inactive)
- GI50 (HOP-18): > 100 µM (inactive)
- GI50 (KM-20L2): > 100 µM (inactive)
- GI50 (LXFL 529): > 100 µM (inactive)
- GI50 (RXF 631): > 100 µM (inactive)
- GI50 (SNB-78): > 100 µM (inactive)
- GI50 (XF498): > 100 µM (inactive)

SMILES: CCOC(=O)C1=C(C)N(c2ccc(C)cc2)C2=C(C(=O)N(c3ccccc3)C2c2ccccc2)C1c1ccccc1 (stereo not drawn)
- GI50 (DLD-1): 12.3 µM (inactive)
- GI50 (DMS-114): 17.9 µM (inactive)
- GI50 (DMS-273): > 25 µM (inactive)
- GI50 (KM-20L2): > 25 µM (inactive)
- GI50 (LXFL 529): 20 µM (inactive)
- GI50 (RXF 631): > 25 µM (inactive)
- GI50 (XF498): > 25 µM (inactive)

SMILES: CCOC(=O)c1[nH]c(COC(C)=O)c(CCCOC(C)=O)c1CCCOC(C)=O
- GI50 (DMS-273): > 100 µM (inactive)
- GI50 (KM-20L2): > 100 µM (inactive)
- GI50 (LXFL 529): > 100 µM (inactive)
- GI50 (SNB-78): > 100 µM (inactive)
- GI50 (XF498): > 100 µM (inactive)

SMILES: ClC/C=C/COC1CCCCO1 (stereo not drawn)
- GI50 (DLD-1): > 100 µM (inactive)
- GI50 (DMS-114): 33.2 µM (inactive)
- GI50 (DMS-273): 62.2 µM (inactive)
- GI50 (HOP-18): > 100 µM (inactive)
- GI50 (KM-20L2): > 100 µM (inactive)
- GI50 (LXFL 529): > 100 µM (inactive)
- GI50 (RXF 631): 34.8 µM (inactive)
- GI50 (SNB-78): > 100 µM (inactive)
- GI50 (XF498): 25.2 µM (inactive)

SMILES: Cc1cc2c(cc1C)[n+]([O-])c(C(=O)C/C(=N/NC(=S)NN)C(=O)Nc1cccc(C(F)(F)F)c1)c[n+]2[O-]
- GI50 (DLD-1): > 100 µM (inactive)
- GI50 (DMS-114): > 100 µM (inactive)
- GI50 (DMS-273): > 100 µM (inactive)
- GI50 (HOP-18): > 100 µM (inactive)
- GI50 (LXFL 529): > 100 µM (inactive)
- GI50 (RXF 631): > 100 µM (inactive)
- GI50 (SNB-78): > 100 µM (inactive)

SMILES: OCc1cc2c(cn1)[nH]c1ccc(NCc3ccccc3)cc12
- GI50 (DLD-1): 34.8 µM (inactive)
- GI50 (DMS-114): 15.6 µM (inactive)
- GI50 (DMS-273): 20.7 µM (inactive)
- GI50 (KM-20L2): 14.4 µM (inactive)
- GI50 (LXFL 529): 17.9 µM (inactive)
- GI50 (RXF 631): 27.4 µM (inactive)
- GI50 (XF498): 25.8 µM (inactive)

SMILES: N#CC(C#N)=CSc1ccccc1
- GI50 (DLD-1): 24 µM (inactive)
- GI50 (DMS-114): 17.7 µM (inactive)
- GI50 (DMS-273): 21.4 µM (inactive)
- GI50 (HOP-18): > 100 µM (inactive)
- GI50 (KM-20L2): 32.7 µM (inactive)
- GI50 (LXFL 529): 24.3 µM (inactive)
- GI50 (RXF 631): 20.6 µM (inactive)
- GI50 (XF498): 53.7 µM (inactive)

SMILES: N#CC(C(=O)Nc1ccccc1)C1=C(Cl)C(=O)c2ccccc2C1=O (stereo not drawn)
- GI50 (DLD-1): 17.1 µM (inactive)
- GI50 (DMS-114): 17.8 µM (inactive)
- GI50 (HOP-18): 10.7 µM (inactive)
- GI50 (KM-20L2): 23 µM (inactive)
- GI50 (LXFL 529): 19.9 µM (inactive)
- GI50 (SNB-78): 20.1 µM (inactive)
- GI50 (XF498): 16.7 µM (inactive)

SMILES: COc1ccc(/C=C/c2nnc(S)[nH]2)cc1OC
- GI50 (DLD-1): > 100 µM (inactive)
- GI50 (DMS-114): > 100 µM (inactive)
- GI50 (DMS-273): > 100 µM (inactive)
- GI50 (KM-20L2): > 100 µM (inactive)
- GI50 (LXFL 529): > 100 µM (inactive)
- GI50 (SNB-78): > 100 µM (inactive)
- GI50 (XF498): > 100 µM (inactive)

SMILES: O=C1C(Cl)C(c2cc(Br)cc(Br)c2O)N1n1cnc2ccccc2c1=O (stereo not drawn)
- GI50 (DLD-1): 8.87 µM (inactive)
- GI50 (DMS-273): 29.4 µM (inactive)
- GI50 (HOP-18): 24.5 µM (inactive)
- GI50 (KM-20L2): 32.5 µM (inactive)
- GI50 (LXFL 529): 21 µM (inactive)
- GI50 (SNB-78): 20.7 µM (inactive)
- GI50 (XF498): 23.3 µM (inactive)

SMILES: Clc1ccccc1C1N2CCCCC2[C@@H]2c3[nH]c4ccccc4c3CCN12 (stereo partly drawn)
- GI50 (DLD-1): 18.9 µM (inactive)
- GI50 (DMS-114): 20 µM (inactive)
- GI50 (DMS-273): 27.4 µM (inactive)
- GI50 (HOP-18): 42 µM (inactive)
- GI50 (KM-20L2): 18.6 µM (inactive)
- GI50 (LXFL 529): 31 µM (inactive)
- GI50 (SNB-78): 25.4 µM (inactive)
- GI50 (XF498): 19.4 µM (inactive)

SMILES: CC1=CC(=O)CC2(C)CC[C@@H]3C[C@]12OC3(C)C (stereo partly drawn)
- GI50 (DLD-1): > 100 µM (inactive)
- GI50 (DMS-114): > 100 µM (inactive)
- GI50 (DMS-273): > 100 µM (inactive)
- GI50 (HOP-18): > 100 µM (inactive)
- GI50 (KM-20L2): > 100 µM (inactive)
- GI50 (LXFL 529): > 100 µM (inactive)
- GI50 (SNB-78): > 100 µM (inactive)
- GI50 (XF498): > 100 µM (inactive)

SMILES: N=C1NC(=O)N2CC12 (stereo not drawn) [IMEXON]
- GI50 (DLD-1): > 100 µM (inactive)
- GI50 (DMS-114): > 100 µM (inactive)
- GI50 (DMS-273): > 100 µM (inactive)
- GI50 (HOP-18): > 100 µM (inactive)
- GI50 (KM-20L2): > 100 µM (inactive)
- GI50 (LXFL 529): > 100 µM (inactive)
- GI50 (XF498): > 100 µM (inactive)

Reference: ChEMBL document CHEMBL1201862, “PubChem BioAssay data set” (2004)
